In US20250320213A1, “Nitrogen-Containing Heterocyclic Compounds” (Pfizer Inc., priority 2024, published 2025):
Where two headings read alike, the source gives them in different places.

Legend:
STAT6 = molecular target: T1, STAT6 (Homo sapiens, UniProt P42226); assay: STAT6 Reporter Luciferase Assay (IL-13 stimulated HaCaT keratinocyte NanoLuc reporter cells); assay type: cell-based; settings: read-out: Reporter EC50
T1 construct: stably transfected HaCaT keratinocyte cell line, which expresses NanoLuc luciferase reporter gene under the transcriptional control of the STAT6 responsive promoter; endogenous in cells; host or cells: HaCaT keratinocyte reporter cell line (stably transfected with a NanoLuc reporter)
T1 sequence (P42226 1-847): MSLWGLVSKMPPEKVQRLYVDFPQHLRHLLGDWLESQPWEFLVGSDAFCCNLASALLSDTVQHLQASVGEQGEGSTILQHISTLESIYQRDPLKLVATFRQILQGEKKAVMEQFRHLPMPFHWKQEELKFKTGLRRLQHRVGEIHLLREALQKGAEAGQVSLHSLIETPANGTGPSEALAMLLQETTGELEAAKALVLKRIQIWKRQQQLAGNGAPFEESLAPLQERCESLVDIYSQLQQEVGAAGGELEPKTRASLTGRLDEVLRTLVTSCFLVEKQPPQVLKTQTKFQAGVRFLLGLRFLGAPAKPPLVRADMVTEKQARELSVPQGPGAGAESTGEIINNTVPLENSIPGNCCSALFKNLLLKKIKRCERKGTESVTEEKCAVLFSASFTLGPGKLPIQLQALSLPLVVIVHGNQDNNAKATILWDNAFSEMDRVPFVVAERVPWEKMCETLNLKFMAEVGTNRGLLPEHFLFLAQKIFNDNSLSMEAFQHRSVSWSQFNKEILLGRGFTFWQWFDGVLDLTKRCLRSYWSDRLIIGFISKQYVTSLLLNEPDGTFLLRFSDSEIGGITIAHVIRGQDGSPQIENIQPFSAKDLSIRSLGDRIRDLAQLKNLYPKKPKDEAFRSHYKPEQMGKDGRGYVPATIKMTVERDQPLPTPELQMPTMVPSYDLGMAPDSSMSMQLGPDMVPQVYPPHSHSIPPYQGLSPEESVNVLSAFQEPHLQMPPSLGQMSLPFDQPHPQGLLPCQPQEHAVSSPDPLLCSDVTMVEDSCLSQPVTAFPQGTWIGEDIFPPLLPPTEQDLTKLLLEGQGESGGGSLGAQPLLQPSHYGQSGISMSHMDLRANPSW
In short: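 Luminescence from a NanoLuc reporter driven by the STAT6-responsive IL-13Ra2 promoter in HaCaT keratinocytes serves as the read-out. Compounds are given 2 h before a 4 h stimulation with 0.12 nM IL-13.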

[1] = system: CCL17 secretion in peripheral human whole blood; assay: Human Whole Blood (HWB) CCL17 TR-FRET Assay (IL-13 stimulated CCL17 secretion); assay type: cell-based
In short: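 TR-FRET sandwich immunoassay (665/615 nm ratio) read CCL17 in serum from heparinized whole blood after 16 h RT detection. Blood was exposed to compound for 2 h at 37 °C, then to 10 ng/mL IL-13 (final) for 48 h. IC50 from 11-point, 3-fold titrations in duplicate.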

[2] = IL-13 stimulated HaCaT STAT6 NanoLuc reporter cells
[3] = Homo sapiens, 48 h, human whole blood, 10 ng/mL IL13, 48 hours
[4] = STAT6 NanoLuc luciferase reporter, IL-13 stimulated HaCaT keratinocyte cells
[5] = Homo sapiens, 48 h, inhibition of CCL17 secretion in human whole blood, 10 ng/mL IL13, 48 hours

Row | SMILES | EC50 (STAT6; [2]) [µM] | IC50 [1, 3] [µM] | EC50 (STAT6; [4]) [µM] | IC50 [1, 5] [µM] | also measured
1 | CC(C)n1nc(C(=O)NCc2ccc(NC(=O)N3CCC(F)(F)C3)cc2)c2c1[C@@H](C)CN(c1ccc(C(=O)N(C)C)cn1)C2 [Example 590, (S)-N-(4-(3,3-difluoropyrrolidine-1-carboxamido)benzyl)-5-(5-(dimethylcarbamoyl)pyridin-2-yl)-1-isopropyl-7-methyl-4,5,6,7-tetrahydro-1H-pyrazolo[4,3-c]pyridine-3-carboxamide] | 0.0004 | 0.01 |  |  | 
2 | CN(C)C(=O)Nc1ccc(CNC(=O)c2nn(C3CCC3)c3c2CN(c2ccc(C(=O)N(C)C)cn2)CC3)cc1 [Example 96, 1-cyclobutyl-5-(5-(dimethylcarbamoyl)pyridin-2-yl)-N-(4-(3,3-dimethylureido)benzyl)-4,5,6,7-tetrahydro-1H-pyrazolo[4,3-c]pyridine-3-carboxamide] |  |  | 0.005 | 0.066 | 
3 | CC(C)n1nc(C(=O)NCc2ccc(-c3nnc[nH]3)cc2)c2c1CCN(c1ccc(C(=O)N(C)C)cn1)C2 [Example 40, N-(4-(4H-1,2,4-triazol-3-yl)benzyl)-5-(5-(dimethylcarbamoyl)pyridin-2-yl)-1-isopropyl-4,5,6,7-tetrahydro-1H-pyrazolo[4,3-c]pyridine-3-carboxamide] |  |  | 0.038 | 0.324 | 
4 | CC(C)n1nc(C(=O)NCc2ccc(NC(=O)N3CCNCC3)cc2Cl)c2c1[C@@H](C)CN(c1ccc(C(=O)N(C)C)cc1)C2 [Example 630, (S)-N-(2-chloro-4-(piperazine-1-carboxamido)benzyl)-5-(4-(dimethylcarbamoyl)phenyl)-1-isopropyl-7-methyl-4,5,6,7-tetrahydro-1H-pyrazolo[4,3-c]pyridine-3-carboxamide] | 0.009 | 0.055 |  |  | 
5 | COc1cc(NC(=O)N2CCNCC2)c(F)cc1CNC(=O)c1nn(C(C)C)c2c1CN(c1ccc(C(=O)N(C)C)cc1)C[C@@H]2C [Example 588, (S)-5-(4-(dimethylcarbamoyl)phenyl)-N-(5-fluoro-2-methoxy-4-(piperazine-1-carboxamido)benzyl)-1-isopropyl-7-methyl-4,5,6,7-tetrahydro-1H-pyrazolo[4,3-c]pyridine-3-carboxamide] | 0.075 | 0.875 |  |  | 
6 | CCc1nc(C(=O)NCc2ccc(NC(=O)N(C)C)cc2)c2n1C(C)CN(c1ccc(C(=O)N(C)C)cn1)C2 (single isomer, unassigned) [Example 232, rel-(R or S)-7-(5-(dimethylcarbamoyl)pyridin-2-yl)-N-(4-(3,3-dimethylureido)benzyl)-3-ethyl-5-methyl-5,6,7,8-tetrahydroimidazo[1,5-a]pyrazine-1-carboxamide] | 0.002 |  |  |  | IC50 ([1]; human whole blood, IL-13 stimulated, 48 hours): 0.005 µM
7 | CC1CCC(=O)N1c1ccc(N2CCc3c(c(C(=O)NCc4ccc(NC(=O)N(C)C)cc4)nn3C(C)C)C2)nc1 (stereo not drawn) [Example 56, N-(4-(3,3-dimethylureido)benzyl)-1-isopropyl-5-(5-(2-methyl-5-oxopyrrolidin-1-yl)pyridin-2-yl)-4,5,6,7-tetrahydro-1H-pyrazolo[4,3-c]pyridine-3-carboxamide] |  |  | 0.013 | 0.369 | 
8 | CCn1nc(C(=O)NCc2ccc(NC(=O)N(C)C)cc2)c2c1CCN(c1ccc(N3CCCC3=O)cn1)C2 [Example 36, N-(4-(3,3-Dimethylureido)benzyl)-1-ethyl-5-(5-(2-oxopyrrolidin-1-yl)pyridin-2-yl)-4,5,6,7-tetrahydro-1H-pyrazolo[4,3-c]pyridine-3-carboxamide] |  |  | 0.024 | 0.254 | 
9 | CC(n1nc(C(=O)NCc2ccc(NC(=O)N(C)C)cc2)c2c1[C@@H](C)CN(c1ccc(C(=O)N(C)C)cn1)C2)C(F)(F)F (mixture of isomers) [Example 262, (S)-5-(5-(dimethylcarbamoyl)pyridin-2-yl)-N-(4-(3,3-dimethylureido)benzyl)-7-methyl-1-((RS)-1,1,1-trifluoropropan-2-yl)-4,5,6,7-tetrahydro-1H-pyrazolo[4,3-c]pyridine-3-carboxamide] | 0.001 |  |  |  | IC50 ([1]; Homo sapiens, 48 h, human whole blood, IL-13 stimulated): 0.006 µM
